Source: ChEMBL document CHEMBL1201862, “PubChem BioAssay data set” (2004)
Active and inactive are the calls of the source.

How the values were obtained:
[1] = target: T1, DNA repair protein RAD52 homolog (Homo sapiens, UniProt P43351); type: functional, biochemical
T1 sequence (P43351 whole entry): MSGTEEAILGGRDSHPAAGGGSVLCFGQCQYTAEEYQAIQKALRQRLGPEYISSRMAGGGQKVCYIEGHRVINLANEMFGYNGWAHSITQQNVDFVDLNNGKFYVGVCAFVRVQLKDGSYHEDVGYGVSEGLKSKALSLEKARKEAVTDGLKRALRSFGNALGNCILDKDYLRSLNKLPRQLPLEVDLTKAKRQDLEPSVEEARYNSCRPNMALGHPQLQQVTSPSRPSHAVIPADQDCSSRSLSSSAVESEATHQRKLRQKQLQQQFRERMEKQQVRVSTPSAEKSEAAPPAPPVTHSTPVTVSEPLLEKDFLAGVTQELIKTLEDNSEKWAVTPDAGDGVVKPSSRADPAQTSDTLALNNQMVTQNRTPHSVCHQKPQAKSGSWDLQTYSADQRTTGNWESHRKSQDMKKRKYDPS

[2] = HepG2 cell cytotoxicity, dose response, cytotoxicity control for Shn3 inhibitor project, CellTiter-Glo, cherry-picked (AID 624134); type: functional, cell-based
[3] = target: DNA dC->dU-editing enzyme APOBEC-3G (Homo sapiens, UniProt Q9HC16); type: functional;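 note: Dose-response counterscreen measuring inhibition of APOBEC3G DNA deaminase activity, run while confirming APOBEC3A inhibitors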
Chain of DNA dC->dU-editing enzyme APOBEC-3G (Q9HC16 whole entry): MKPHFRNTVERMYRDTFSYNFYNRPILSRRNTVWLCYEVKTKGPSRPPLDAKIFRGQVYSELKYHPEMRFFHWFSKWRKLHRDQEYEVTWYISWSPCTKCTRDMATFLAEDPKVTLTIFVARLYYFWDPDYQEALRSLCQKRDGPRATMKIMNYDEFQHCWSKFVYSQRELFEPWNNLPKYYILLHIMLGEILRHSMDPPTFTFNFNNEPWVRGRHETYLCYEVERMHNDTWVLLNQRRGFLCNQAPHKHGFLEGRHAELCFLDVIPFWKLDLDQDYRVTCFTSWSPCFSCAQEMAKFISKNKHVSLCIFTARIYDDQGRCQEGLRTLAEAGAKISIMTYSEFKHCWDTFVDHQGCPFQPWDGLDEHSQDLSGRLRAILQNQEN

[4] = target: T2, DNA repair and recombination protein RAD54-like (Homo sapiens, UniProt Q92698); assay: inhibitors of human RAD54 branch migration, confirmation, biochemical, fluorescence, cherry-picked samples, dose series (AID 651657); type: functional
T2 sequence (Q92698 whole entry): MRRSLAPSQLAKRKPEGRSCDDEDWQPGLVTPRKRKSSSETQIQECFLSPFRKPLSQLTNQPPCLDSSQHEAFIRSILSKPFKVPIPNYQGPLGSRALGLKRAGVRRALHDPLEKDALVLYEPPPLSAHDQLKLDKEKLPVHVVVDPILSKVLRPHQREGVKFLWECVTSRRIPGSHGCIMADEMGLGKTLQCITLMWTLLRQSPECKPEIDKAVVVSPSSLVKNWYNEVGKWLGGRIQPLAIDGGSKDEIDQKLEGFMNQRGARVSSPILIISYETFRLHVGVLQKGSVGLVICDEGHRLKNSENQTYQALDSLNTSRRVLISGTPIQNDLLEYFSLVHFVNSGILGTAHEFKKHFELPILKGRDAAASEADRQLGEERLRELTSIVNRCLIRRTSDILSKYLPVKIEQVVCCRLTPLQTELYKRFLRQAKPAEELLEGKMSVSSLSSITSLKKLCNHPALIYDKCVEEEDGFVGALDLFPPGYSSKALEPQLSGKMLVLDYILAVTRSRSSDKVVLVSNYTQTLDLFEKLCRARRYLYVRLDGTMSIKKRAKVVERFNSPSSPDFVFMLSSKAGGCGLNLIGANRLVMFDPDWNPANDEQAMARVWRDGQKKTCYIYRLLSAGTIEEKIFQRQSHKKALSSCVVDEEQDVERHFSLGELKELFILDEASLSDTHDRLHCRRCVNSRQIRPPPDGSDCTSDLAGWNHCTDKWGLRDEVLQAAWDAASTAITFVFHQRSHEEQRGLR

[5] = Shn3 3'UTR reporter inhibitors, dose response, cell-based, Clone20 osteoblasts, firefly luciferase, cherry-picked (AID 624132); type: functional;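 note: firefly luciferase luminescence from reporter carrying the Shn3 3'UTR in osteoblasts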
BJ [6] = assay: cytotoxicity toward BJ-TERT fibroblasts, dose response, cell-based, RAS-independent, luminescence (AID 1933); type: functional; conditions: Homo sapiens
[7] = control 3'UTR Renilla luciferase suppression, dose response, counter-screen for Shn3 inhibitor project, cell-based, Clone20-Shn3RL, cherry-picked (AID 624133); type: functional
[8] = cytotoxicity toward DRD oncogenic fibroblasts, dose response, cell-based, non-viral oncogenic, luminescence (AID 1934); type: functional; conditions: Homo sapiens
[9] = target: T3, Short transient receptor potential channel 4 (Mus musculus, UniProt Q9QUQ5); assay: mouse TRPC4 channel inhibitors, dose response, cell-based, HEK293 TRPC4/mu-opioid, Fluo-4 calcium (AID 434942); type: functional;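 note: potency of inhibitors blocking the TRPC4 calcium response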
T3 sequence (Q9QUQ5 whole entry): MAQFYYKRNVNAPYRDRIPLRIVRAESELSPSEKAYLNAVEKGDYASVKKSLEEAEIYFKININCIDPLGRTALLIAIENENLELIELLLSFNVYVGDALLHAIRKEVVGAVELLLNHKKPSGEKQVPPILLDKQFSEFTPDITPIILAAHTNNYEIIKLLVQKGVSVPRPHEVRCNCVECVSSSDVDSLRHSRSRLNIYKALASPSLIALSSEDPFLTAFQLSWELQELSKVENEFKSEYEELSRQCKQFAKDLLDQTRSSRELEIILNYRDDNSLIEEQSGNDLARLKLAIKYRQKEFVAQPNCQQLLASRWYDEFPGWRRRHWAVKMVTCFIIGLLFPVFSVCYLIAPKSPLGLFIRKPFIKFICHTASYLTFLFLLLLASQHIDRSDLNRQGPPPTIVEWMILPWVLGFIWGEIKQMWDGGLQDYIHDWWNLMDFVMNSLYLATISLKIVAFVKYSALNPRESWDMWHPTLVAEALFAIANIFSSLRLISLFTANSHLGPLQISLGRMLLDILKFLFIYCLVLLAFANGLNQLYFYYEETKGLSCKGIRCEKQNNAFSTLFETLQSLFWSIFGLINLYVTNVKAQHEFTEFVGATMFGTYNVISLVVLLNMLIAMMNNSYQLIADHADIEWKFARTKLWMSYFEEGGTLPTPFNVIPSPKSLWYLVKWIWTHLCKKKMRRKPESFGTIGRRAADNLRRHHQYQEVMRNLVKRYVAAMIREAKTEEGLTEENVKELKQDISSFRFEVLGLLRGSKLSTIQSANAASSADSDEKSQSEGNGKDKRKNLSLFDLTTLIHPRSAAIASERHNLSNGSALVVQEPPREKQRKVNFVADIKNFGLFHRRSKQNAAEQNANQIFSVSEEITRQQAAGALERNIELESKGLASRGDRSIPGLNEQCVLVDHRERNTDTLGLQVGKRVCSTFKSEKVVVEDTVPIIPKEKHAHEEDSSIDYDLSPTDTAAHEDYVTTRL

INS1 = assay: beta cell apoptosis inhibitors, cytokine rescue, dose response, luminescence, retest (AID 449756); type: functional, cell-based; conditions: Rattus norvegicus;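 note: cell death triggered by IL-1 beta plus TNF-alpha plus IFN-gamma mixture; protective hits raise ATP signal compared with cytokine alone wells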
BJ [10] = assay: cytotoxicity toward BJ-TERT-LT-ST fibroblasts, dose response, cell-based, RAS-independent, luminescence (AID 1935); type: functional; conditions: Homo sapiens;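 note: BJ fibroblasts immortalized with TERT plus LT and ST oncogenes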
BJ [11] = assay: cells; type: functional, cell-based; conditions: Homo sapiens
[12] = target: DNA dC->dU-editing enzyme APOBEC-3A (Homo sapiens, UniProt P31941); assay: Dose Response confirmation of small molecule APOBEC3A DNA Deaminase Inhibitors via a fluorescence-based single-stranded DNA deaminase assay. [Related pubchem assays (depositor defined):AID493011, AID493024]; type: functional
Chain of DNA dC->dU-editing enzyme APOBEC-3A (P31941 whole entry): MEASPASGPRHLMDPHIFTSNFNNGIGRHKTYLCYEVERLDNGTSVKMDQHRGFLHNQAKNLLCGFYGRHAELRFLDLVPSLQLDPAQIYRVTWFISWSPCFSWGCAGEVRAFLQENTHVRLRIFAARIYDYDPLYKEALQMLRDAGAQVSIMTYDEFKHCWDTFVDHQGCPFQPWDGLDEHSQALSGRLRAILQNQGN

BJ [13] = assay: cytotoxicity toward Ras-transformed BJeLR fibroblasts, dose response, cell-based, alamar blue fluorescence, cherrypicked samples (AID 2631); type: functional; conditions: Homo sapiens;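 note: confirmatory dose-response assay in RAS-dependent BJ fibroblasts engineered with TERT, LT and ST, with cytotoxicity read by fluorescence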
[14] = AlphaScreen signal interference compounds, dose response, artefact control for ARNT-TACC3 interaction inhibitor project, biochemical, luminescence, cherry-pick (AID 651705); type: functional;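 note: AlphaScreen bead proximity signal that flags compounds interfering with the detection technology; potency reflects signal decrease which marks the compound as an assay artifact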
[15] = target: T4, Probable nicotinate-nucleotide adenylyltransferase (Staphylococcus aureus (strain N315), UniProt P65502); type: functional, Staphylococcus aureus subsp. aureus N315; conditions: read-out: IC50_Mean;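 for IC50 Mean: confirmatory dose-response retesting of NadD inhibitor hits first found in an ultra-high-throughput screen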
T4 sequence (P65502 whole entry): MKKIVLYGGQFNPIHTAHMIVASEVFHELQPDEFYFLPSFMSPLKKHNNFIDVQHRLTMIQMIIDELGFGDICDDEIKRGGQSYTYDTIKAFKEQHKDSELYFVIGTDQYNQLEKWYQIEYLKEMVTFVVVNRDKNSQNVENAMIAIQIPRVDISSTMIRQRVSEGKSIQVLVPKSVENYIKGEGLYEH

[16] = target: T4, Probable nicotinate-nucleotide adenylyltransferase; type: functional, Staphylococcus aureus subsp. aureus N315
[17] = target: T5, Small ubiquitin-related modifier 1 (Homo sapiens, UniProt P63165); assay: inhibitors of SUMO1 peptide binding, dose response, biochemical, fluorescence polarization, uHTS hits (AID 624382); type: functional; conditions: read-out: IC50_Mean
T5 sequence (P63165 whole entry): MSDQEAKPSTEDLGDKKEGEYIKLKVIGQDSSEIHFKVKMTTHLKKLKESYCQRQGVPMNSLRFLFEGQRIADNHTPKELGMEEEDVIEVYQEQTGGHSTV

[18] = target: T5, Small ubiquitin-related modifier 1; assay: inhibitors of SUMO1 partner interactions, dose response, biochemical, FRET (AID 624383); type: functional; conditions: read-out: IC50_Mean
[19] = tested on: Streptococcus sp. 'group A'; assay: growth inhibition of control SK(-) GAS strain, dose response, counter-screen for streptokinase expression inhibitor project, luminescence, kanamycin, BacTiterGlo, confirmation (AID 1900); type: functional, organism-based
Streptokinase A = target: T6, Streptokinase A (Streptococcus pyogenes serotype M1, UniProt P10520); assay: S. pyogenes streptokinase expression inhibitors, potency, dose response, plasminogen activation absorbance, OD405 (AID 1914); type: functional, Streptococcus pyogenes M1 GAS;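 note: secreted streptokinase activity via plasminogen activation per viability signal from cell pellet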
T6 sequence (P10520 whole entry): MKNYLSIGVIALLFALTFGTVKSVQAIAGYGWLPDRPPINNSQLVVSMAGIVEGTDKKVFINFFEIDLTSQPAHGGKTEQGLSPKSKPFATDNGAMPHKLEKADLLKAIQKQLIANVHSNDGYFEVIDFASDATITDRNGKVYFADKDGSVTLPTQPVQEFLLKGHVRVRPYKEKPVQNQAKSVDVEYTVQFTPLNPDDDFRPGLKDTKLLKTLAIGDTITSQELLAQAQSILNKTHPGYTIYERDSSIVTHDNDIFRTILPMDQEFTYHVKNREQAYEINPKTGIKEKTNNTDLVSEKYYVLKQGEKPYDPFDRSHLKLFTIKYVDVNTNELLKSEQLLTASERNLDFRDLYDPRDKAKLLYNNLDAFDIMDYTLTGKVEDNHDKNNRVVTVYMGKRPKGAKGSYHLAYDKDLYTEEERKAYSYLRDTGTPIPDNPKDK

Streptococcus = assay: Group A Streptococcus viability loss, dose response, counter-screen for streptokinase expression inhibitor project, luminescence, BacTiterGlo (AID 1915); type: functional, organism-based;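 note: potency for reduction of bacterial viability or growth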
[20] = target: 26S proteasome non-ATPase regulatory subunit 14 (Homo sapiens, UniProt O00487); assay: inhibition of proteasome subunit RPN11 – biochemical, fluorescence polarization, uHTS hits, confirmation (AID 602368); type: functional
Chain of 26S proteasome non-ATPase regulatory subunit 14 (O00487 whole entry): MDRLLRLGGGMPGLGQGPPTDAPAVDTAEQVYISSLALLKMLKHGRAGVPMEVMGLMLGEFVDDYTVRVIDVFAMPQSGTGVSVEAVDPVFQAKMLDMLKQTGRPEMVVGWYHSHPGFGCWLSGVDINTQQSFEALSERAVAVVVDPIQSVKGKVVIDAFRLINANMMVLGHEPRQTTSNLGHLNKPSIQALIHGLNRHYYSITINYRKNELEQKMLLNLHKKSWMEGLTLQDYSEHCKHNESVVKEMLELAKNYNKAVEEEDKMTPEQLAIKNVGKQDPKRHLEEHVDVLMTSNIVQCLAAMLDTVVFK

[21] = target: T7, Endoribonuclease toxin MazF (Escherichia coli K-12, UniProt P0AE70); assay: MazF toxin RNase activators, dose response, biochemical, fluorescence, single-stranded RNA substrate, uHTS hits (AID 588481); type: functional
T7 sequence (P0AE70 whole entry): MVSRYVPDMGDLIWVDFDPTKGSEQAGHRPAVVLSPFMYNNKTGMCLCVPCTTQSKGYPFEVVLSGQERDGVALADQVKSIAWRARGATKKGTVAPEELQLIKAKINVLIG

[22] = target: T7, Endoribonuclease toxin MazF; assay: fluorescent RNA oligo signal without MazF, dose response, counter-screen for MazEF activator project, biochemical, fluorescence, single-stranded RNase substrate (AID 588502); type: functional
Prothrombin = Prothrombin (Bos taurus, UniProt P00735); assay: thrombin inhibition, dose response, biochemical, fluorescence polarization, uHTS hits (AID 602369); type: functional
[23] = target: 72 kDa type IV collagenase (Homo sapiens, UniProt P08253); assay: Dose Response validation of uHTS RPN11 inhibitor hits using a MMP-2 Fluorescence assay.; type: functional
Chain of 72 kDa type IV collagenase (P08253 whole entry): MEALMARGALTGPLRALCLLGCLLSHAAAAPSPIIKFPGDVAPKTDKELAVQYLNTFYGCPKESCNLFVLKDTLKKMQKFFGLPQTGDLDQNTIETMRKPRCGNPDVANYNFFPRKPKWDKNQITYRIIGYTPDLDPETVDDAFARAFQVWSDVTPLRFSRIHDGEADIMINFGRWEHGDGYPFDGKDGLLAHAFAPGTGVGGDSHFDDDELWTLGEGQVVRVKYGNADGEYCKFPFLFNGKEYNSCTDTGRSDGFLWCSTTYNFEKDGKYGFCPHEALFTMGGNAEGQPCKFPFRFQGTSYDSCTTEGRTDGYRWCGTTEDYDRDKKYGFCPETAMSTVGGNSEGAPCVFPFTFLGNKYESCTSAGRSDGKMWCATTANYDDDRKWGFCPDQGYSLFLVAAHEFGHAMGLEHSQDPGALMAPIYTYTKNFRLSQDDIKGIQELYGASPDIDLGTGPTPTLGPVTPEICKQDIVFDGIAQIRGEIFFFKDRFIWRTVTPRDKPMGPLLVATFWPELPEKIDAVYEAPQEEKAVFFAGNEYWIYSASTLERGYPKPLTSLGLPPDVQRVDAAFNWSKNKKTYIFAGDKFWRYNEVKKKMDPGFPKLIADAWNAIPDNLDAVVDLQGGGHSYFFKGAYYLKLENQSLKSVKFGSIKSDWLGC

Vero = Vero cell cytotoxicity, cytotoxicity control for flavivirus capping enzyme inhibitors (AID 588742); type: functional; conditions: Chlorocebus sabaeus

Structure (SMILES): CN(C)CCCNc1c2ccccc2nc2ccccc12
- AC50 [1]: 0.271 µM (active)
- AC50 [2]: 7.82 µM (active)
- IC50 [3]: 58 µM (active)
- AC50 [4]: 0.814 µM (active)
- AC50 [5]: 3.22 µM (active)
- EC50 (BJ [6]): 1.92 µM (active)
- AC50 [7]: > 70 µM (inactive)
- EC50 [8]: 4.72 µM (active)
- EC50 [9]: 1.33 µM (active)
- AC50 (INS1): 0.533 µM (active)
- EC50 (BJ [10]): 5.56 µM (active)
- EC50 (BJ [11]): 3.21 µM (active)
- IC50 [12]: 18 µM (active)
- EC50 (BJ [13]): 0.454 µM (inconclusive)

Structure (SMILES): COC(=O)c1ccc(CSc2ccc3nnc(-c4ccccn4)n3n2)o1
- AC50 [14]: 98.1 µM (active)

Structure (SMILES): O=C(NCc1ccco1)c1cccc2c1C(=O)c1ccc(/C=C/c3ccccc3)cc1S2(=O)=O
- IC50 [15]: 29.3 µM (active)
- IC50 [16]: 11.5 µM (active)

Structure (SMILES): COc1cc(CNCc2ccccn2)ccc1OCC(=O)NC(C)(C)C
- AC50 [14]: 90.6 µM (active)

Structure (SMILES): COc1cccc2sc(Nc3nc(-c4cc5ccccc5oc4=O)cs3)nc12
- IC50 [17]: > 66.6 µM (inactive)
- IC50 [18]: 2.42 µM (active)

Structure (SMILES): Cc1cc(C)c2nc(NNC(=O)c3cc(=O)c4ccccc4o3)sc2c1
- EC50 [19]: 0.296 µM (active)
- IC50 [15]: 28.2 µM (active)
- EC50 (Streptokinase A): > 150 µM (not active)
- EC50 (Streptococcus): 7.16 µM (active)
- IC50 [16]: 4.41 µM (active)

Structure (SMILES): CCCN1C(=O)/C(=C/c2c(NCCCOC(C)C)nc3c(C)cccn3c2=O)SC1=S
- IC50 [20]: 0.09 µM (active)
- EC50 [21]: 16 µM (active)
- EC50 [22]: 34.2 µM (inactive)
- IC50 (Prothrombin): 0.148 µM (active)
- IC50 [23]: > 100 µM (inactive)

Structure (SMILES): NN=C1c2ccccc2C(=O)C1C(=O)C(c1ccccc1)c1ccccc1 (stereo unspecified)
- IC50 [15]: 25.5 µM (active)
- IC50 [16]: 13.8 µM (active)

Structure (SMILES): CCCCCCCCCCCC1NC(N)=NC(CCCO)=C1C(=O)OC (stereo unspecified)
- AC50 [1]: 7.72 µM (active)
- IC50 [17]: > 66.6 µM (inactive)
- IC50 [20]: 19.9 µM (active)
- IC50 [18]: 10.1 µM (active)
- IC50 (Prothrombin): 42.3 µM (active)
- IC50 [23]: 85.8 µM (active)

Structure (SMILES): CN1CCC[C@H]1CCNc1ccc2c(=O)c3ccccc3n(C)c2c1
- AC50 [1]: 2.17 µM (active)
- AC50 [4]: 5.81 µM (active)
- CC50 (Vero): 30.7 µM (active)
